Assays:
GdpP-C (GdpP313-656) [1] = biological target: T1, GdpP-C (GdpP313-656) (Staphylococcus aureus, UniProt Q2G2T6); test: isothermal titration calorimetry; type: binding
T1 sequence (Q2G2T6 313-655): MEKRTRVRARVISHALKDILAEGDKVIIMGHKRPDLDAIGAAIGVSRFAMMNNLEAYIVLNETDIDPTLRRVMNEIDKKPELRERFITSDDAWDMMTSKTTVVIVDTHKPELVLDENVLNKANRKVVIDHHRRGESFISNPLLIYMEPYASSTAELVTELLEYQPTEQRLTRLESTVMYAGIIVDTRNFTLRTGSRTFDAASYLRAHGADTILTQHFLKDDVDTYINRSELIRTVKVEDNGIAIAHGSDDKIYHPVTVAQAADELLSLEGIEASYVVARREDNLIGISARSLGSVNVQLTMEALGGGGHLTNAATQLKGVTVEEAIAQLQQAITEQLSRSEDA

GdpP-C (GdpP313-656) [2] = biological target: T1, GdpP-C (GdpP313-656); test: phosphomolybdate blue Pi release, Michaelis-Menten fit; type: biochemical

`CC(=O)CCCCn1c(=O)c2c(ncn2C)n(C)c1=O` [pentoxifylline] gave a Kd (GdpP-C (GdpP313-656) [1]) of 33.2 µM and a Ki (GdpP-C (GdpP313-656) [2]) of 68.3 µM.

Reference: paper doi:10.1101/2025.09.09.675175v1 (biorxiv, 2025)
